Here are results for ten molecules from US20240116985A1, “STAPLED PEPTIDES AND METHODS THEREOF” (priority 2020, published 2024).

Series [1] deals with T1, beta-catenin/TCF4 engagement (Homo sapiens, UniProt P35222).
T1 construct: expressed in transfected cells; host or cells: HEK293
T1 sequence (P35222 1-781): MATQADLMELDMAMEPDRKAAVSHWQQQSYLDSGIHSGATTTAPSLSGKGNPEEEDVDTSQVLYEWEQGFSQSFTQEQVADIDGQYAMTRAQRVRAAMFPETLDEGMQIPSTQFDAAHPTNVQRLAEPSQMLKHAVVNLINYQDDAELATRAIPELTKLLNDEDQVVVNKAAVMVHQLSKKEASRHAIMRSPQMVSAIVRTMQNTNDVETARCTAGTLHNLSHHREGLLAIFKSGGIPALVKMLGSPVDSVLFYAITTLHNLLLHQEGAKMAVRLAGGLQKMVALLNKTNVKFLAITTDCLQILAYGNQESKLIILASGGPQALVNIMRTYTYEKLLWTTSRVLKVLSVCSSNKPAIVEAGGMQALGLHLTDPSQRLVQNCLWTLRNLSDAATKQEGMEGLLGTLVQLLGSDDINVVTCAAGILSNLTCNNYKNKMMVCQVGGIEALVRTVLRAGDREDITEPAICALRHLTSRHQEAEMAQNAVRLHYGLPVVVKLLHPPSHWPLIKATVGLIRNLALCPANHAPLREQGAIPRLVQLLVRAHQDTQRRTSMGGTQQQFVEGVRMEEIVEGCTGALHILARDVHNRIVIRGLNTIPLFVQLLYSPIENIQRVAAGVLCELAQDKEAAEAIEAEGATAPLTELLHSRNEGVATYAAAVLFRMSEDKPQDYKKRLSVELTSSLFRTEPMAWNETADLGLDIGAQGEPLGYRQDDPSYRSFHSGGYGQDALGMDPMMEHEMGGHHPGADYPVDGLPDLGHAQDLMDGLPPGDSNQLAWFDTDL
The series can be described thus: Nano-BRET target engagement assay (B-cat-Halo & TCF4-Luc in HEK293 cells). The series is classed as cell-based. Particulars: for inhibition at 10 µM: HEK293, @ 10 uM, read-out: NanoBRET % inh @ 10 uM. On the technique in general: Bioluminescence resonance energy transfer reports proximity on the nanometre scale.

Series [2] has as its target T2, full-length beta-Catenin (Uniprot ID P35222) (Homo sapiens, UniProt P35222).
T2 construct: 10 nM full-length beta-Catenin (Uniprot ID P35222)
T2 sequence (P35222 1-781): T1 sequence (P35222 1-781)
The series can be described thus: Fluorescence polarization IC50 (beta-catenin / 5FAM-TCF4 10-53 competition). Particulars: read-out: beta-Catenin FP IC50. It is filed as binding. Background: Fluorescence polarisation rises when a labelled molecule tumbles more slowly, as on binding a larger partner.

A short description of the next series: Solubility in PBS. The series is classed as physicochemical. The gist of the method:
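HPLC quantitation of peptide remaining in the PBS supernatant after ultracentrifugation, referenced to a 50 μM solution in DMSO.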

A short description of a further series: CHI Log D procedure. The series is classed as physicochemical. To be noted: pH 7.4, CHI Log D.

In brackets after ≈: the same amount, converted by molar mass. Like-named read-outs stand apart in the source and are kept apart here.

A word on the IC50: it is the concentration needed to halve the response being measured. As a reminder, the Solubility is the dissolved amount per volume that the medium holds. A low value points to little dissolved substance. The term chromatographic logD denotes lipophilicity estimated from chromatographic retention. Read a low chromatographic logD as lower lipophilicity. Regarding `CC(=O)N1CCC[C@]12CC=CCCCC1(CCCC=CCCCOC(=O)N3CC[C@@](C(=O)N[C@@H](Cc4ccsc4)C(=O)N[C@@H](Cc4csc5ccccc45)C(N)=O)(C3)NC(=O)[C@H](CC(N)=O)NC(=O)[C@H](Cc3ccccc3)NC(=O)[C@H](C)NC(=O)[C@H](C)NC(=O)[C@H](CC(=O)O)NC(=O)[C@H](CC(=O)O)NC1=O)NC(=O)[C@H](CC(C)(C)C)NC(=O)[C@H](CC(=O)O)NC2=O` (stereo partly drawn) [I-785, Ac-PL3-Asp-Npg-B5-Asp-Asp-Ala-Ala-Phe-Asn-PyrS2-3Thi-BztA-NH2], the inhibition at 10 µM in series [1] was found to be 31%. Further, the IC50 is 21600 nM in series [1] (read-out: NanoBRET Abs IC50) and 6 nM in series [2]. Also, the concentration in solution in “Solubility in PBS” (Solubility (uM)) (Solubility) was 42 µM (≈ 75.2 µg/mL). In the series “CHI Log D procedure”, this molecule came in with a chromatographic logD of 2.28.

As for `CC(=O)N1CCC[C@]12CC=CCCCC1(CCCC=CCCCOC(=O)N3CC[C@@](C(=O)N[C@@H](Cc4ccsc4)C(=O)N[C@@H](Cc4csc5ccccc45)C(N)=O)(C3)NC(=O)[C@H](CC(N)=O)NC(=O)[C@H](Cc3ccccc3)NC(=O)[C@H](C)NC(=O)[C@H](C)NC(=O)[C@H](CCC(=O)O)NC(=O)[C@H](CC(=O)O)NC1=O)NC(=O)[C@H](CC(C)(C)C)NC(=O)[C@H](CC(=O)O)NC2=O` (stereo partly drawn) [I-786, Ac-PL3-Asp-Npg-B5-Asp-Glu-Ala-Ala-Phe-Asn-PyrS2-3Thi-BztA-NH2], the IC50 in series [1] (read-out: NanoBRET Abs IC50) stood at 29300 nM; in series [1] (read-out: NanoBRET IC50) it was 17100 nM; in series [2], 8 nM. The molecule also registered a Solubility in “Solubility in PBS” (Solubility (uM)) of 39 µM (≈ 70.4 µg/mL). The same molecule came in with a chromatographic logD in “CHI Log D procedure” of 2.3.

Take `CC(=O)N1CCC[C@]12CC=CCCCC1(CCCC=CCCCOC(=O)N3CC[C@@](C(=O)N[C@@H](Cc4ccsc4)C(=O)N[C@@H](Cc4csc5ccccc45)C(=O)N[C@@H](Cc4c[nH]cn4)C(N)=O)(C3)NC(=O)[C@H](CC(N)=O)NC(=O)[C@H](Cc3ccccc3)NC(=O)[C@H](C)NC(=O)[C@H](C)NC(=O)[C@H](CC(=O)O)NC(=O)[C@H](CC(=O)O)NC1=O)NC(=O)[C@H](CCC(C)C)NC(=O)[C@H](CC(=O)O)NC2=O` (stereo partly drawn) [I-788, Ac-PL3-Asp-hLeu-B5-Asp-Asp-Ala-Ala-Phe-Asn-PyrS2-3Thi-BztA-His-NH2]: the IC50 came to 21600 nM in series [1] (read-out: NanoBRET Abs IC50) and 5 nM in series [2]. The molecule also showed a Solubility in “Solubility in PBS” (Solubility (uM)) of 31 µM (≈ 59.7 µg/mL). In “CHI Log D procedure”, this molecule had a chromatographic logD of 2.17.

Turning to `CC(=O)N1CCC[C@]12CC=CCCCC1(CCCC=CCCCOC(=O)N3CC[C@@](C(=O)N[C@@H](Cc4ccsc4)C(=O)N[C@@H](Cc4cccc5ccccc45)C(=O)N[C@@H](Cc4c[nH]cn4)C(N)=O)(C3)NC(=O)[C@H](CC(N)=O)NC(=O)[C@H](Cc3ccccc3)NC(=O)[C@H](C)NC(=O)[C@H](C)NC(=O)[C@H](CC(=O)O)NC(=O)[C@H](CC(=O)O)NC1=O)NC(=O)[C@H](CC(C)(C)C)NC(=O)[C@H](CC(=O)O)NC2=O` (stereo partly drawn) [I-789, Ac-PL3-Asp-Npg-B5-Asp-Asp-Ala-Ala-Phe-Asn-PyrS2-3Thi-1NapA-His-NH2], in series [1], the inhibition at 10 µM came to 9.7%. The IC50 was > 20000 nM in series [1] (read-out: NanoBRET Abs IC50) and 19 nM in series [2]. Further, the “Solubility” value in “Solubility in PBS” came out at 50 µM (≈ 96.1 µg/mL). This molecule also returned a chromatographic logD in the series “CHI Log D procedure” of 2.08.

In the case of `CC(=O)N1CCC[C@]12CC=CCCCC1(CCCC=CCCCOC(=O)N3CC[C@@](C(=O)N[C@@H](Cc4ccsc4)C(=O)N[C@@H](Cc4ccc5ccccc5c4)C(=O)N[C@@H](Cc4c[nH]cn4)C(N)=O)(C3)NC(=O)[C@H](CC(N)=O)NC(=O)[C@H](Cc3ccccc3)NC(=O)[C@H](C)NC(=O)[C@H](C)NC(=O)[C@H](CC(=O)O)NC(=O)[C@H](CC(=O)O)NC1=O)NC(=O)[C@H](CC(C)(C)C)NC(=O)[C@H](CC(=O)O)NC2=O` (stereo partly drawn) [I-790, Ac-PL3-Asp-Npg-B5-Asp-Asp-Ala-Ala-Phe-Asn-PyrS2-3Thi-2NapA-His-NH2], the concentration for half-maximal inhibition (IC50) is > 20000 nM in series [1] (read-out: NanoBRET Abs IC50) and 24 nM in series [2]. In addition, the “Solubility” value in the series “Solubility in PBS” came out at 50 µM (≈ 96.1 µg/mL). The chromatographic logD in “CHI Log D procedure” was 2.12.

Consider `CC(=O)N1CCC[C@]12CC=CCCCC1(CCCC=CCCCOC(=O)N3CC[C@@](C(=O)N[C@@H](Cc4ccsc4)C(=O)N[C@@H](Cc4c[nH]c5ccccc45)C(=O)N[C@@H](Cc4c[nH]cn4)C(N)=O)(C3)NC(=O)[C@H](CC(N)=O)NC(=O)[C@H](Cc3ccccc3)NC(=O)[C@H](C)NC(=O)[C@H](C)NC(=O)[C@H](CC(=O)O)NC(=O)[C@H](CC(=O)O)NC1=O)NC(=O)[C@H](CC(C)(C)C)NC(=O)[C@H](CC(=O)O)NC2=O` (stereo partly drawn) [I-792, Ac-PL3-Asp-Npg-B5-Asp-Asp-Ala-Ala-Phe-Asn-PyrS2-3Thi-Trp-His-NH2], for which the IC50 in series [1] (read-out: NanoBRET Abs IC50) is > 20000 nM; in series [2], 20 nM. In “Solubility in PBS” (Solubility (uM)), this molecule displayed a Solubility of 33 µM (≈ 63 µg/mL). The molecule also came in with a chromatographic logD in “CHI Log D procedure” of 1.96.

For the molecule `CC(=O)N1CCC[C@]12CC=CCCCC1(CCCC=CCCCOC(=O)N3CC[C@@](C(=O)N[C@@H](Cc4csc5ccccc45)C(=O)N[C@@H](Cc4csc5ccccc45)C(=O)N[C@@H](Cc4c[nH]cn4)C(N)=O)(C3)NC(=O)[C@H](CC(N)=O)NC(=O)[C@H](Cc3ccccc3)NC(=O)[C@H](C)NC(=O)[C@H](C)NC(=O)[C@H](CC(=O)O)NC(=O)[C@H](CC(=O)O)NC1=O)NC(=O)[C@H](CC(C)(C)C)NC(=O)[C@H](CC(=O)O)NC2=O` (stereo partly drawn) [I-793, Ac-PL3-Asp-Npg-B5-Asp-Asp-Ala-Ala-Phe-Asn-PyrS2-BztA-BztA-His-NH2], the concentration for half-maximal inhibition (IC50) in series [1] (read-out: NanoBRET Abs IC50) was > 20000 nM; in series [2] it was 14 nM. Moreover, in the series “Solubility in PBS”, the “Solubility” value turned out to be 10 µM (≈ 19.8 µg/mL). In addition, in the series “CHI Log D procedure”, the chromatographic logD was 2.39.

Take `CC(=O)N1CCC[C@]12CC=CCCCC1(CCCC=CCCCOC(=O)N3CC[C@@](C(=O)N[C@@H](Cc4cccc5ccccc45)C(=O)N[C@@H](Cc4csc5ccccc45)C(=O)N[C@@H](Cc4c[nH]cn4)C(N)=O)(C3)NC(=O)[C@H](CC(N)=O)NC(=O)[C@H](Cc3ccccc3)NC(=O)[C@H](C)NC(=O)[C@H](C)NC(=O)[C@H](CC(=O)O)NC(=O)[C@H](CC(=O)O)NC1=O)NC(=O)[C@H](CC(C)(C)C)NC(=O)[C@H](CC(=O)O)NC2=O` (stereo partly drawn) [I-794, Ac-PL3-Asp-Npg-B5-Asp-Asp-Ala-Ala-Phe-Asn-PyrS2-1NapA-BztA-His-NH2]: the figures for the half-maximal inhibitory concentration (IC50) in series [1] (read-out: NanoBRET Abs IC50) and in series [2] were 26400 nM and 19 nM, respectively. For the same molecule, in “Solubility in PBS” (Solubility (uM)), the concentration in solution (Solubility) came to 40 µM (≈ 78.8 µg/mL). In “CHI Log D procedure”, the chromatographic logD is 2.38.

`CC(=O)N1CCC[C@]12CC=CCCCC1(CCCC=CCCCOC(=O)N3CC[C@@](C(=O)N[C@@H](Cc4ccsc4)C(=O)N[C@@H](Cc4csc5ccccc45)C(=O)N[C@@H](Cc4c[nH]cn4)C(N)=O)(C3)NC(=O)[C@H](CC(C)C)NC(=O)[C@H](Cc3ccccc3)NC(=O)[C@H](C)NC(=O)[C@H](C)NC(=O)[C@H](CC(=O)O)NC(=O)[C@H](CC(=O)O)NC1=O)NC(=O)[C@H](CC(C)(C)C)NC(=O)[C@H](CC(=O)O)NC2=O` (stereo partly drawn) [I-802, Ac-PL3-Asp-Npg-B5-Asp-Asp-Ala-Ala-Phe-Leu-PyrS2-3Thi-BztA-His-NH2]: the IC50 was determined as 4800 nM in series [1] (read-out: NanoBRET Abs IC50) and 6 nM in series [2]. Further, the “Solubility” value in the series “Solubility in PBS” is 10 µM (≈ 19.3 µg/mL). Besides, in the series “CHI Log D procedure”, the chromatographic logD stood at 2.3.

Turning to `CC(=O)N1CCC[C@]12CC=CCCCC1(CCCC=CCCCOC(=O)N3CC[C@@](C(=O)N[C@@H](Cc4ccsc4)C(=O)N[C@@H](Cc4csc5ccccc45)C(=O)N[C@@H](Cc4c[nH]cn4)C(N)=O)(C3)NC(=O)[C@H](CCO)NC(=O)[C@H](Cc3ccccc3)NC(=O)[C@H](C)NC(=O)[C@H](C)NC(=O)[C@H](CC(=O)O)NC(=O)[C@H](CC(=O)O)NC1=O)NC(=O)[C@H](CC(C)(C)C)NC(=O)[C@H](CC(=O)O)NC2=O` (stereo partly drawn) [I-804, Ac-PL3-Asp-Npg-B5-Asp-Asp-Ala-Ala-Phe-Hse-PyrS2-3Thi-BztA-His-NH2], the concentration for half-maximal inhibition (IC50) in series [1] (read-out: NanoBRET Abs IC50) worked out at 13500 nM; in series [2] it was 5 nM. In addition, the Solubility in the series “Solubility in PBS” (Solubility (uM)) is 44 µM (≈ 84.2 µg/mL). The same molecule gave a chromatographic logD in the series “CHI Log D procedure” of 2.11.
